Here are results for 34 molecules from patent publication US20250186391A1, “ORAL COMPLEMENT FACTOR D INHIBITORS” (BioCryst Pharmaceuticals, Inc., priority 2019, published 2025).

Usually IC50 stands for the concentration that gives 50% inhibition.

For this assay, the target named is Factor D (Homo sapiens (Human), UniProt P00746). Kind of assay: Factor D esterolytic assay. The format is biochemical. Conditions: Z-Lys-SBzl substrate, 100 mM HEPES, 500 mM NaCl, pH 7.5, 10% DMSO; tested a minimum of three times; read-out: Measured Ki (IC50) Value for Compounds: IC50. In outline: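 Chromogenic thioesterase read-out: Z-Lys-SBzl (1.29 mM) hydrolysis by human Factor D, thiol detected with DTNB at 405 nm (690 nm background subtracted) for 600 s. Run in 100 mM HEPES, 500 mM NaCl, pH 7.5, 10% DMSO, substrate added immediately or after room-temperature preincubation. IC50 from percent inhibition versus enzyme alone, n≥3.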
Factor D, sequence (P00746 26-253): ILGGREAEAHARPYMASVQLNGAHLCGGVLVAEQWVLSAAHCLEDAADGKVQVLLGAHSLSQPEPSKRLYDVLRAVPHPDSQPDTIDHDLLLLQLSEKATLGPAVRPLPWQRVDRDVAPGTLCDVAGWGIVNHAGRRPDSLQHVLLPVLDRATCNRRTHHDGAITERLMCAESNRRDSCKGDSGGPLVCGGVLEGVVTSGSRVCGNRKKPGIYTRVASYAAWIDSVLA
Consider `NCc1cccc(-c2cc3c(COc4ccccc4CC(=O)O)coc3c3ccoc23)c1` [Compound 123g, 2-(2-((5-(3-(aminomethyl)phenyl)benzo[1,2-b:3,4-b′]difuran-3-yl)methoxy)phenyl)acetic acid], for which the IC50 was below 1000 nM. Next, `CC(C)n1nc2ccc(-c3cccc(CN)c3)cc2c1COc1ccccc1CC(=O)O` [Compound 183e, 2-(2-((5-(3-(aminomethyl)phenyl)-2-isopropyl-2H-indazol-3-yl)methoxy)phenyl)acetic acid]: below 1000 nM; `NCc1cccc(-c2cc(CO)cc3cc(COc4ccccc4CC(=O)O)oc23)c1` [Compound 29b, 2-(2-((7-(3-(aminomethyl)phenyl)-5-(hydroxymethyl)benzofuran-2-yl)methoxy)phenyl)acetic acid]: below 1000 nM; `CCOC(=O)Cc1ccccc1OCc1cc(-c2cccc(CN)c2)c2oc(COc3ccccc3CC(=O)O)cc2c1` [Compound 22e, 2-(2-((7-(3-(aminomethyl)phenyl)-5-((2-(2-ethoxy-2-oxoethyl)phenoxy)methyl)benzofuran-2-yl)methoxy)phenyl)acetic acid]: below 1000 nM. Next, `NCc1cccc(-c2cc(C#CC3CC3)c3occ(COc4ccccc4CC(=O)O)c3c2)c1` [Compound 294d, 2-(2-((5-(3-(aminomethyl)phenyl)-7-(cyclopropylethynyl)benzofuran-3-yl)methoxy)phenyl)acetic acid]: below 1000 nM; `NCc1cccc(-c2cc(COc3ccccc3CCC(=O)O)cc3cc(COc4ccccc4CC(=O)O)oc23)c1` [Compound 15e, 3-(2-((7-(3-(aminomethyl)phenyl)-2-((2-(carboxymethyl)phenoxy)methyl)benzofuran-5-yl)methoxy)phenyl)propanoic acid]: below 1000 nM. To `COc1c(-c2cc3c(COc4ccccc4CC(=O)O)cccc3o2)ccnc1CN` [Compound 329d, 2-(2-((2-(2-(aminomethyl)-3-methoxypyridin-4-yl)benzofuran-4-yl)methoxy)phenyl)acetic acid] belongs 1000 to 10000 nM; to `NCc1cccc(-c2cc(-c3ccccc3N)c3occ(COc4ccccc4CC(=O)O)c3c2)c1` [Compound 222c, 2-(2-((5-(3-(aminomethyl)phenyl)-7-(2-aminophenyl)benzofuran-3-yl)methoxy)phenyl)acetic acid], below 1000 nM; to `NCc1cccc(-c2cc(N3CCOCC3)c3occ(COc4ccccc4CC(=O)O)c3c2)c1` [Compound 154c, 2-(2-((5-(3-(aminomethyl)phenyl)-7-morpholinobenzofuran-3-yl)methoxy)phenyl)acetic acid], below 1000 nM.

Consider `Cc1ccc(CC(=O)O)c(OCc2coc3c(C)cc(-c4cccc(CN)c4)cc23)c1` [Compound 313c, 2-(2-((5-(3-(aminomethyl)phenyl)-7-methylbenzofuran-3-yl)methoxy)-4-methylphenyl)acetic acid], for which the half-maximal inhibitory concentration (IC50) is below 1000 nM. To `Cc1ccc(CC(=O)O)c(OCc2coc3ccc(-c4cccc(CN)c4)cc23)c1` [Compound 47d, 2-(2-((5-(3-(aminomethyl)phenyl)benzofuran-3-yl)methoxy)-4-methylphenyl)acetic acid] belongs below 1000 nM; to `COCCc1oc2ccc(-c3cccc(CN)c3)cc2c1COc1ccccc1CC(=O)O` [Compound 175h, 2-(2-((5-(3-(aminomethyl)phenyl)-2-(2-methoxyethyl)benzofuran-3-yl)methoxy)phenyl)acetic acid], below 1000 nM. On to `NCc1cccc(-c2cc(CN3CCC(F)(F)CC3)c3occ(COc4ccccc4CC(=O)O)c3c2)c1` [Compound 89e, 2-(2-((5-(3-(aminomethyl)phenyl)-7-((4,4-difluoropiperidin-1-yl)methyl)benzofuran-3-yl)methoxy)phenyl)acetic acid], for which the IC50 is below 1000 nM. As to `COc1c(-c2ccc3c(c2)c(COc2ccccc2CC(=O)O)nn3C2CCCC2)ccnc1CN` [Compound 327d, 2-(2-((5-(2-(aminomethyl)-3-methoxypyridin-4-yl)-1-cyclopentyl-1H-indazol-3-yl)methoxy)phenyl)acetic acid], the IC50 fell in the range of 1000 to 10000 nM. To `NCc1cccc(-c2ccc3occ(COc4c(CC(=O)O)cccc4C(N)=O)c3c2)c1` [Compound 114i, 2-(2-((5-(3-(aminomethyl)phenyl)benzofuran-3-yl)methoxy)-3-carbamoylphenyl)acetic acid] belongs 1000 to 10000 nM. On to `NCc1cccc(-c2ccc3occ(COc4c(F)cccc4CC(=O)O)c3c2)c1` [Compound 44d, 2-(2-((5-(3-(aminomethyl)phenyl)benzofuran-3-yl)methoxy)-3-fluorophenyl)acetic acid], for which the IC50 was below 1000 nM. Next, `NCc1cccc(-c2ccc3c(c2)c(COc2ccccc2CC(=O)O)nn3-c2ccccc2)c1` [Compound 144h, 2-(2-((5-(3-(aminomethyl)phenyl)-1-phenyl-1H-indazol-3-yl)methoxy)phenyl)acetic acid]: below 1000 nM.

With `NCc1cccc(-c2ccc3occ(COc4cc(Br)ccc4CC(=O)O)c3c2)c1` [Compound 192b, 2-(2-((5-(3-(aminomethyl)phenyl)benzofuran-3-yl)methoxy)-4-bromophenyl)acetic acid], the IC50 is below 1000 nM.

For the molecule `Cc1ccc(CC(=O)O)c(OCc2nn(C(C)C)c3ccc(-c4cccc(CN)c4)cc23)c1` [Compound 254c, 2-(2-((5-(3-(aminomethyl)phenyl)-1-isopropyl-1H-indazol-3-yl)methoxy)-4-methylphenyl)acetic acid], the IC50 was below 1000 nM. Take `NCc1cccc(-c2ccc3occ(COc4ccccc4CCC(=O)O)c3c2)c1` [Compound 2d, 3-(2-((5-(3-(aminomethyl)phenyl)benzofuran-3-yl)methoxy)phenyl)propanoic acid]: the half-maximal inhibitory concentration (IC50) fell in the range of 1000 to 10000 nM.

On to `COc1ccc(CC(=O)O)c(OCc2c(CO)oc3ccc(-c4cccc(CN)c4)cc23)c1` [Compound 214c, 2-(2-((5-(3-(aminomethyl)phenyl)-2-(hydroxymethyl)benzofuran-3-yl)methoxy)-4-methoxyphenyl)acetic acid], for which the IC50 is below 1000 nM.

In the case of `CC(C)n1nc(COc2ccccc2CC(=O)O)c2cc(-c3cccc([C@H](C)N)c3)ccc21` [Compound 320b, (S)-2-(2-((5-(3-(1-aminoethyl)phenyl)-1-isopropyl-1H-indazol-3-yl)methoxy)phenyl)acetic acid], the IC50 was below 1000 nM. As for `CC(=O)c1oc2ccc(-c3cccc(CN)c3)cc2c1COc1ccccc1CC(=O)O` [Compound 141c, 2-(2-((2-acetyl-5-(3-(aminomethyl)phenyl)benzofuran-3-yl)methoxy)phenyl)acetic acid], the IC50 is below 1000 nM. Turning to `CC(C)n1nc(COc2ccccc2CC(=O)O)c2cc(-c3cc(CN)cc(C4CCOCC4)c3)ccc21` [Compound 332e, 2-(2-((5-(3-(aminomethyl)-5-(tetrahydro-2H-pyran-4-yl)phenyl)-1-isopropyl-1H-indazol-3-yl)methoxy)phenyl)acetic acid], the half-maximal inhibitory concentration (IC50) is above 10000 nM.

Take `NCc1cccc(-c2ccc3cccc(COc4ccccc4CC(=O)O)c3c2)c1` [Compound 100d, 2-(2-((7-(3-(aminomethyl)phenyl)naphthalen-1-yl)methoxy)phenyl)acetic acid]: the IC50 was below 1000 nM. For the molecule `COc1ccc(CC(=O)O)c(OCc2c(C(C)C)oc3ccc(-c4cccc(CN)c4)cc23)c1` [Compound 169c, 2-(2-((5-(3-(aminomethyl)phenyl)-2-isopropylbenzofuran-3-yl)methoxy)-4-methoxyphenyl)acetic acid], the IC50 is below 1000 nM. To `NCc1cccc(-c2cc(Cl)cc3c(COc4ccccc4CC(=O)O)coc23)c1` [Compound 193b, 2-(2-((7-(3-(aminomethyl)phenyl)-5-chlorobenzofuran-3-yl)methoxy)phenyl)acetic acid] belongs 1000 to 10000 nM. Next, `Cn1nc(Nc2ccccc2CC(=O)O)c2cc(-c3cccc(CN)c3)ccc21` [Compound 77d, 2-(2-((5-(3-(aminomethyl)phenyl)-1-methyl-1H-indazol-3-yl)amino)phenyl)acetic acid]: above 10000 nM. To `Cc1ccc(CC(=O)O)c(OCc2c(C)oc3ccc(-c4cccc(CN)c4)cc23)c1` [Compound 131c, 2-(2-((5-(3-(aminomethyl)phenyl)-2-methylbenzofuran-3-yl)methoxy)-4-methylphenyl)acetic acid] belongs below 1000 nM. As for `NCc1nccc(-c2cc3c(COc4ccccc4CC(=O)O)coc3c3ccoc23)c1F` [Compound 289d, 2-(2-((5-(2-(aminomethyl)-3-fluoropyridin-4-yl)benzo[1,2-b:3,4-b′]difuran-3-yl)methoxy)phenyl)acetic acid], the IC50 is below 1000 nM. To `NCc1cccc(-c2ccc3occ(COc4cc(CC5CC5)ccc4CC(=O)O)c3c2)c1` [Compound 153d, 2-(2-((5-(3-(aminomethyl)phenyl)benzofuran-3-yl)methoxy)-4-(cyclopropylmethyl)phenyl)acetic acid] belongs below 1000 nM; to `C[C@@H]1CN(Cc2cc(-c3cccc(CN)c3)cc3c(COc4ccccc4CC(=O)O)coc23)C[C@H](C)O1` [Compound 208d, 2-(2-((5-(3-(aminomethyl)phenyl)-7-(((2R,6S)-2,6-dimethylmorpholino)methyl)benzofuran-3-yl)methoxy)phenyl)acetic acid], below 1000 nM; to `NCc1cc(-c2cc3c(COc4ccccc4CC(=O)O)cccc3o2)ccn1` [Compound 290h, 2-(2-((2-(2-(aminomethyl)pyridin-4-yl)benzofuran-4-yl)methoxy)phenyl)acetic acid], below 1000 nM. For `NCc1cccc(-c2ccc3occ(COc4ccccc4CC(=O)O)c3c2)c1F` [Compound 42b, 2-(2-((5-(3-(aminomethyl)-2-fluorophenyl)benzofuran-3-yl)methoxy)phenyl)acetic acid], the IC50 is below 1000 nM.
